In the assay the test system is 313798-341-R-J2-PDC spheroids, viability. The assay can be described thus: Anticancer human tumor 313798-341-R-J2-PDC patient-derived cervical squamous cell carcinoma cell line growth inhibition [PI3K]. To be noted: spheroids with HUVEC and MSC; for viability, T/C: stronger effect = lower value. In short, it runs like this: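 Complex 3D spheroids (cancer cells + endothelial HUVEC + mesenchymal stem cells); drug pairs of targeted agent x inavolisib/alpelisib/duvelisib/copanlisib; half-log series from ~Cmax, max 10 microM if Cmax unknown; endpoint viability.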

[1] abbreviates: curve of first compound, second compound 0.0316 µM.
Where [2] appears, read: curve of first compound, second compound 0.1 µM.
Where [3] appears, read: curve of first compound, second compound 0.316 µM.
The mark [4] stands for this setting: curve of first compound, second compound 1 µM.
[5] abbreviates: second compound 0.0316 µM, first compound 0.0316 µM.
Setting [6] is: second compound 0.0316 µM, first compound 0.1 µM.
The mark [7] stands for this setting: second compound 0.0316 µM, first compound 0.316 µM.
[8] abbreviates: second compound 0.0316 µM, first compound 1 µM.
Where [9] appears, read: second compound 0.0316 µM, first compound 3.16 µM.
The mark [10] stands for this setting: second compound 0.0316 µM, first compound 10 µM.
[11] abbreviates: second compound 0.1 µM, first compound 0.0316 µM.
[12] abbreviates: second compound 0.1 µM, first compound 0.1 µM.
Setting [13] is: second compound 0.1 µM, first compound 0.316 µM.
Where [14] appears, read: second compound 0.1 µM, first compound 1 µM.
[15] abbreviates: second compound 0.1 µM, first compound 3.16 µM.
The mark [16] stands for this setting: second compound 0.1 µM, first compound 10 µM.
Setting [17] is: second compound 0.316 µM, first compound 0.0316 µM.
The mark [18] stands for this setting: second compound 0.316 µM, first compound 0.1 µM.
The mark [19] stands for this setting: second compound 0.316 µM, first compound 0.316 µM.
[20] abbreviates: second compound 0.316 µM, first compound 1 µM.
Setting [21] is: second compound 0.316 µM, first compound 3.16 µM.
Where [22] appears, read: second compound 0.316 µM, first compound 10 µM.
The mark [23] stands for this setting: second compound 1 µM, first compound 0.0316 µM.
The mark [24] stands for this setting: second compound 1 µM, first compound 0.1 µM.
The mark [25] stands for this setting: second compound 1 µM, first compound 0.316 µM.
The mark [26] stands for this setting: second compound 1 µM, first compound 1 µM.
Setting [27] is: second compound 1 µM, first compound 3.16 µM.
Setting [28] is: second compound 1 µM, first compound 10 µM.

Usually IC50 stands for the point on the concentration scale where inhibition reaches its midpoint. As a reminder, the viability, T/C is the ratio of treated to control.

“And” between values parts separate entries of the source, which are not always exact repeats. Equal values may be shown once. Bounds are passed on as bounds.
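Note: spheroids exposed to compounds for seven days.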
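Throughout, for viability, T/C: 100% = DMSO vehicle control viability.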

`CNC(=O)c1ccc(N2C(=S)N(c3ccc(C#N)c(C(F)(F)F)c3)C(=O)C2(C)C)cc1F` + CC(Nc1ncnc2nc[nH]c12)c1cc2cccc(Cl)c2c(=O)n1-c1ccccc1: the IC50 is > 10 µM under setting [1]; > 10 µM under setting [2]; > 10 µM under setting [3]; > 10 µM under setting [4]; > 10 µM (curve of first compound, second compound 3.16 µM); > 10 µM (curve of first compound, second compound 10 µM). The viability, T/C is 104% under setting [5]; 110% under setting [6]; 100% under setting [7]; 92.4% under setting [8]; 121% under setting [9]; 98.8% under setting [10]. The viability, T/C by setting is: under setting [11], 102%; under setting [12], 101%; under setting [13], 112%; under setting [14], 99.4%; under setting [15], 106%; under setting [16], 101%. Besides, the viability, T/C is 94.8% under setting [17]; 98.3% under setting [18]; 92.6% under setting [19]; 98.8% under setting [20]; 98.3% under setting [21]; 96.5% under setting [22]. Further, the viability, T/C under setting [23] was 95%; the viability, T/C under setting [24] is 96.5%; the viability, T/C under setting [25] was 97.8%; the viability, T/C under setting [26] is 109%; the viability, T/C under setting [27] is 100%; the viability, T/C under setting [28] was 93.2%. In addition, the viability, T/C was 111% (second compound 3.16 µM, first compound 0.0316 µM); 101% (second compound 3.16 µM, first compound 0.1 µM); 92.9% (second compound 3.16 µM, first compound 0.316 µM); 93.9% (second compound 3.16 µM, first compound 1 µM); 97.1% (second compound 3.16 µM, first compound 3.16 µM); 84.8% (second compound 3.16 µM, first compound 10 µM). Moreover, the viability, T/C by setting is: (second compound 10 µM, first compound 0.0316 µM) 82.8%; (second compound 10 µM, first compound 0.1 µM) 86.1%; (second compound 10 µM, first compound 0.316 µM) 85.5%; (second compound 10 µM, first compound 1 µM) 85.6%; (second compound 10 µM, first compound 3.16 µM) 88.4%; (second compound 10 µM, first compound 10 µM) 73.2%.

Take `Cn1cnc2c(F)c(Nc3ccc(Br)cc3Cl)c(C(=O)NOCCO)cc21`: the viability, T/C was 97.9% [middle of 4 runs] (compound 0.00949 µM), 92% [middle of 4 runs] (compound 0.03 µM), 89.5% [middle of 4 runs] (compound 0.0949 µM) and 93.5% [middle of 4 runs] (compound 0.3 µM). The half-inhibitory concentration (IC50) (curve of compound) is 1.38 µM and > 3 µM.

Turning to `CC(Cn1ccc(-c2ccc(C#N)c(Cl)c2)n1)NC(=O)c1cc(C(C)O)[nH]n1` (stereo unspecified), the viability, T/C is 98.1% and 107% and 99.7% (compound 0.0316 µM); 111% and 96.9% and 101% (compound 0.1 µM); 101% and 107% and 113% (compound 0.316 µM); 113% and 97.7% and 93.9% (compound 1 µM); 99% and 105% and 104% (compound 3.16 µM); 99.1% and 101% and 93.9% (compound 10 µM). Also, the IC50 (curve of compound) is > 10 µM.

With `C#Cc1c(F)ccc2cc(O)cc(-c3ncc4c(N5CC6CCC(C5)N6)nc(OCC56CCCN5CC(F)C6)nc4c3F)c12` (stereo unspecified) + CC(Nc1ccc2c(c1)OCCn1cc(N3C(=O)OCC3C(F)F)nc1-2)C(N)=O, the IC50 runs as follows: (curve of first compound, second compound 0.00316 µM) > 10 µM; (curve of first compound, second compound 0.01 µM) > 10 µM; under setting [1], > 10 µM; under setting [2], > 10 µM; under setting [3], > 10 µM; under setting [4], > 10 µM. Further, the viability, T/C was 91.8% (second compound 0.00316 µM, first compound 0.0316 µM); 96.8% (second compound 0.00316 µM, first compound 0.1 µM); 97.4% (second compound 0.00316 µM, first compound 0.316 µM); 95.5% (second compound 0.00316 µM, first compound 1 µM); 99.3% (second compound 0.00316 µM, first compound 3.16 µM); 99.3% (second compound 0.00316 µM, first compound 10 µM). The viability, T/C reads like this: (second compound 0.01 µM, first compound 0.0316 µM) 97.7%; (second compound 0.01 µM, first compound 0.1 µM) 99.9%; (second compound 0.01 µM, first compound 0.316 µM) 102%; (second compound 0.01 µM, first compound 1 µM) 110%; (second compound 0.01 µM, first compound 3.16 µM) 116%; (second compound 0.01 µM, first compound 10 µM) 98.9%. Further, the viability, T/C under setting [5] was 100%; the viability, T/C under setting [6] was 113%; the viability, T/C under setting [7] is 109%; the viability, T/C under setting [8] was 99.1%; the viability, T/C under setting [9] was 109%; the viability, T/C under setting [10] is 104%. Also, the viability, T/C runs as follows: under setting [11], 118%; under setting [12], 94.5%; under setting [13], 108%; under setting [14], 104%; under setting [15], 102%; under setting [16], 97%. The viability, T/C reads like this: under setting [17], 91%; under setting [18], 81.6%; under setting [19], 74.2%; under setting [20], 78.8%; under setting [21], 83%; under setting [22], 76.9%. Moreover, the viability, T/C was 60.6% under setting [23]; 62.2% under setting [24]; 61.2% under setting [25]; 58.9% under setting [26]; 58.6% under setting [27]; 45.6% under setting [28].

The values are drawn from PubChem BioAssay AID1963982 (Molecular Pharmacology Branch, DTP, NCI, 2024).
